Results from patent US20200062696A1, “COMPOSITIONS AND METHODS FOR INHIBITING RETICULON 4” (THE REGENTS OF THE UNIVERSITY OF CALIFORNIA, priority 2017, published 2020).

Assays:
[1] = system: SW620 colorectal cancer cells; test: Cell proliferation of SW620 cells (Hoescht staining); assay type: cell-based; conditions: 48 h, vs DMSO, average of n = 3/group
Description: Cell Culture. SW620 cells were purchased from ATCC. SW620 cells were grown in L-15 media with 10% fetal bovine serum (FBS) in ambient CO2. U2OS cells were grown in DMEM media supplemented with 10% FBS at 37° C. with 5% CO2.
Survival and Proliferation Assays. Cells were plated the evening before the experiment, and allowed to adhere overnight. For serum-free cell survival assays, cells were plated in media not containing FBS. For cell proliferation assays, cells were plated in regular media. For the chemical genetics screen, cells were treated with either DMSO or the cysteine-reactive fragment for 48 h and cell viability was assessed by Hoescht stain using our previously described methods

[2] = system: SW620 cells expressing GFP-tagged Sec61β; test: ER morphology by fluorescence microscopy in SW620 cells expressing GFP-Sec61β; assay type: cell-based; conditions: DKM 3-30 50 μM
Description: FIG. 8. ER Morphology in SW620 Colorectal Cancer Cells. SW620 cells expressing GFP-tagged Sec61β were treated with DKM 3-30 (50 μM) for the indicated times and the ER (light gray/white) and nuclear (dark gray) morphology visualized by fluorescence microscopy.
Fluorescence microscopy. SW620 and U2OS cells were transiently transfected with a plasmid encoding GFP-tagged Sec61β using fuGENE6 (Roche) according to the manufacturer's instructions. Transfected cells plated on poly-L-lysine treated coverslips were treated, washed in PBS, and fixed by incubation in 4% paraformaldehyde in PBS for 10 min. Fixed cells were washed extensively in PBS and nuclei stained by addition of 4′,6-diamidino-2-phenylindole (DAPI) (Thermo Fisher Scientific) for 10 min. Coverslips were mounted using Fluoromount-G (SouthernBiotech) and visualized using a DeltaVision Elite microscope outfitted with a 60× oil immersion objective. Acquired stacks of images of fixed cells were deconvolved and analyzed using SoftWoRx and ImageJ. For time-lapse imaging of live cells, transfected cells were plated on poly-L-lysine treated glass-bottom 4-well imaging chambers (Lab-Tek II; Thermo Fisher Scientific). Imaging was performed using a DeltaVision Elite microscope encased in a chamber that was maintained at 37° C. and was continuously perfused with humidified 5% CO2. Acquired images were analyzed using SoftWoRx and ImageJ.

## C=CC(=O)Nc1ccc(Oc2ccc(Cl)cc2)cc1 [DKM 3-30, N-(4-(4-chlorophenoxy)phenyl)acrylamide]
[1]; Homo sapiens, SW-620, cysteine-reactive fragment 50 μM, read-out: SW620 proliferation Ave
  activity at 50 µM: 54%
[1]; cysteine-reactive fragment 50 μM
  SW620 proliferation Ave: significantly impaired
[2]
  ER morphology in SW620 cells: suggest alterations in the ER morphology
